Experimental data reported in patent US5068325A, “4,5,7,8-tetrahydro-6H-thiazolo[5,4-d]azepines, their preparation and their use as pharmaceutical compositions” (priority 1988, dated 1991).

Columns and labels:
Type in all cases: binding
dopamine D1-receptors = molecular target: T1, dopamine D1-receptors (Rattus norvegicus, UniProt P18901); experiment: affinity for dopamine D1-receptors by displacement experiments with [3H]-Sch 23390
T1 construct: The striata were dissected out, weighed and homogenised in 25 volumes of tris buffer; from tissue; host or cells: rat striatum membranes (Chbb:Thom strain), prepared as for the D2 assay
T1 sequence (P18901 whole entry): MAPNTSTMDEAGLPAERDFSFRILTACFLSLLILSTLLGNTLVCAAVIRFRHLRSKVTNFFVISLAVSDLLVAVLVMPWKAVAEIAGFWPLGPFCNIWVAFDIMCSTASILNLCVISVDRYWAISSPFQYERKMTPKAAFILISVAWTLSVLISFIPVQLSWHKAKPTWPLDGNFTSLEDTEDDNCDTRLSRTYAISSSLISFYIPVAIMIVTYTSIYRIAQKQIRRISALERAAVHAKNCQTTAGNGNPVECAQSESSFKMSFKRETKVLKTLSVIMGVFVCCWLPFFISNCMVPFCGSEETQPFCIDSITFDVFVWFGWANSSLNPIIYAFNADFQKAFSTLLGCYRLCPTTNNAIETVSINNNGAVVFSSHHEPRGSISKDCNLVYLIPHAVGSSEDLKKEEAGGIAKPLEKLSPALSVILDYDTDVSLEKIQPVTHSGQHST
Procedure: Male rats (of the Chbb:Thom strain weighing about 200 g) were killed by a blow to the back of the neck. The brains were removed and dissected on ice. The striata were dissected out, weighed and homogenised in 25 volumes of tris buffer (50 mM tris-HCl, 1 mM EDTA, 5 mM MgCl2 and 1 mM ascorbic acid) for 30 seconds in an Ultra-Turrax at maximum speed, followed by 10 cycles in a Potter-Elvehjem at 1400 rpm. The pellet obtained after centrifuging at 50,000×g at 4° C. for 15 minutes was again taken up in 25 ml of tris buffer and centrifuged under the above conditions. The supernatant was discarded and the pellet obtained was incubated in 25 ml of tris buffer at 37° C. for 30 minutes and then centrifuged again at 50,000×g at 4° C. for 15 minutes. Finally, the pellet obtained was mixed with tris buffer to obtain a homogenate dilution of 1:500 (based on the weight of the striata).
Displacement curves were obtained from the data using the TOPFIT programming package (G. Heinzel in "Pharmacokinetics During Drug Development: Data Analysis and Evaluation Techniques", G. Bozler and J. M. van Rossum Eds., G. Fischer Verlag, Stuttgart 1982, 207).
7. Determining the affinity for dopamine D1-receptors by displacement experiments with [^3 H1-Sch 23390
The membrane preparation and data analysis were carried out as described for determining the affinity for dopamine D2 - receptors.
1 ml aliquots of the membrane preparation were incubated for 1 hour at ambient temperature with 1 ml of a solution of 0.25 nM [^3 H]-Sch 23390 (2.44 TBq/mmol, Messrs. DuPont NEN) and with increasing concentrations of the test substance (10^-11 to 10^-4 M). Incubation was ended by the addition of 5 ml of ice cold tris buffer and filtration through Whatman GF/B filters. The filters were washed twice, each time with 5 ml of ice cold buffer. The radioactivity of the filters was determined by liquid scintillation measurement in Instagel(R) (Messrs. Canberra Packard).
The non-specific binding was determined in the presence of 10^-6 M (-)-butaclamol (Research Biochemicals Inc.).

[1] = molecular target: T2, serotonin-1A(5-HT1A) receptors (Rattus norvegicus, UniProt P19327); experiment: affinity for serotonin-1A (5-HT1A) receptors by displacement experiments with [3H]-8-OH-DPAT (rat frontal cortex); settings: [3H]-8-OH-DPAT; rat frontal cortex; read-out: 5-HT1A-Ki
T2 construct: The frontal cortex was dissected out; from tissue; host or cells: rat frontal cortex homogenate (Chbb:Thom strain)
T2 sequence (P19327 1-422): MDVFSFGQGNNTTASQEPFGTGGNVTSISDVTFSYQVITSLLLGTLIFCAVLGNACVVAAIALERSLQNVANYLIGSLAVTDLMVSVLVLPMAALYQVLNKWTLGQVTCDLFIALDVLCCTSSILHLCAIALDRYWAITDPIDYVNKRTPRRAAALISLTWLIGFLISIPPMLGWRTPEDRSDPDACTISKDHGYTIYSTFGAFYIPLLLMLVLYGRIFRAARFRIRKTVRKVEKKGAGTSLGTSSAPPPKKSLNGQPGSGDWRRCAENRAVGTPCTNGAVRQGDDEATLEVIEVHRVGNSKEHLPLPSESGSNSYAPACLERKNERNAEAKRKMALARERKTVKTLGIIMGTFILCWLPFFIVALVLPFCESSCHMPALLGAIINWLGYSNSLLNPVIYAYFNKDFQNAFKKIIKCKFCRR
Procedure: 3. […] (Method of S. J. Peroutka, J. Neurochem. 47, 529 (1986), modified according to H. Gozlan et al., J. Receptor Research 7. 195 (1987))
A male rat (Chbb:Thom strain weighing about 200 g) was decapitated. The brain was removed and placed in ice-cold buffer (50 mmol/1 tris-HCl plus hydrochloric acid ad pH =7.4 at ambient temperature). The frontal cortex was dissected out; its moist weight was determined. It was homogenised in 40 times its volume of buffer (Polytron, position 6, 10 seconds), then centrifuged for 20 minutes at 45,000×g in the refrigerated centrifuge. The pellet was washed in 100 times its volume of buffer and centrifuged again as described above. The resulting pellet was resuspended in 40 times its volume of buffer and pre-incubated for 10 minutes at 37° C. Sixty times the volume of buffer were added and centrifuging was carried out as above. The resulting pellet was washed with 100 times the volume of buffer and centrifuged as above. The pellet was resuspended in buffer (0.8 ml/10 mg) and briefly homogenised in the Polytron. This homogenised tissue was cooled in ice until ready for incubation.
Incubation was stopped by rapid filtering through Whatman GF/B filters; rinsing was carried out twice, each time with 5 ml of ice cold buffer (Filter Prep, Messrs. Ismatec). The radioactivity of the filters was determined by liquid scintillation measurement.
(§1) Specific binding is obtained from total binding minus non-specific binding.

[2] = molecular target: T3, serotonin-2(5-HT2)-receptors (Rattus norvegicus, UniProt P14842); experiment: affinity for serotonin-2 (5-HT2) receptors by displacement experiments with [3H]-spiperone (rat frontal cortex)
T3 construct: The frontal cortex was dissected out and placed in ice cold 0.32 M saccharose solution; from tissue; host or cells: rat frontal cortex homogenate (Chbb:Thom strain)
T3 sequence (P14842 whole entry): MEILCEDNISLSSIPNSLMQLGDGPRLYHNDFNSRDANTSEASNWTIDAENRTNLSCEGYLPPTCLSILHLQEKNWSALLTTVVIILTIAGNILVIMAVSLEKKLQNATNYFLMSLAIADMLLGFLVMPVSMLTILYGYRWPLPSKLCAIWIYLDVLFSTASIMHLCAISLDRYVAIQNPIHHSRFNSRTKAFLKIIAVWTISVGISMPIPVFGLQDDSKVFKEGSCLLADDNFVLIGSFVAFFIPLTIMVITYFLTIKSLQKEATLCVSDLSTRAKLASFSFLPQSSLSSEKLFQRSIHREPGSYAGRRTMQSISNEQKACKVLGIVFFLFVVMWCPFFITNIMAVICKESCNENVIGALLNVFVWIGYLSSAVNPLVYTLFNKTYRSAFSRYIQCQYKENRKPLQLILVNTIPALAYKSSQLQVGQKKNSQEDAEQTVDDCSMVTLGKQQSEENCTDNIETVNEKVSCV
Procedure: as §1
A male rat (Chbb:Thom strain, about 200 g) was decapitated. The brain was removed. The frontal cortex was dissected out and placed in ice cold 0.32 M saccharose solution; its moist weight was determined. It was homogenised in 10 times the volume (0.32 M) of saccharose solution for 1 minute at 800 rpm in a Potter S (made by Braun of Melsungen). The homogenised material was centrifuged for 10 minutes at 1000×g (=3,000 rpm with a rotor 8×38 ml) in a refrigerated centrifuge. The supernatant was decanted off and homogenised (Polytron, position 5, 1 minute); the sediment was discarded. 5 ml (=0.5 g moist weight) of the tissue suspension thus obtained were made up to 40 ml with buffer (50 mm tris-HCl; pH=7.7 at ambient temperature).
0.8 ml of the buffered homogenised tissue (=10 mg moist weight) were incubated with 0.1 ml of a solution of [^3 H]-spiperone (about 0.2 nmol/1 final concentration) and with 0.1 ml of a solution of the test substance (increasing concentration) for 15 minutes at 37° C. (triple measurement). Incubation was stopped by rapid filtering through a Whatman GF/B filter; rinsing was carried out 3 times, each time with 5 ml of ice cold buffer within a maximum of 10 seconds (Filter Prep Messrs. Ismatec). The radioactivity of the filters was determined by liquid scintillation measurement.
The specific binding is obtained from the total binding minus the non-specific binding. The averages of the triple measurements are entered in a system of coordinates as in 1.3. The IC50 value is the concentration which inhibits the specific binding of [^3 H]-spiperone by 50%.

| SMILES | Ki (dopamine D1-receptors) | Ki [1] | Ki [2] |
| --- | --- | --- | --- |
| C=CCN1CCc2nc(N)sc2CC1 [Compound A, reference compound] | 12000 nM | 4690 nM | 20200 nM |
| Nc1nc2c(s1)CCN(Cc1ccc(Cl)cc1)CC2 [Compound B, reference compound] | 11000 nM | – | 18400 nM |
| Nc1nc2c(s1)CCN(CC=Cc1cccc3ccccc13)CC2 [Example 4t, 2-Amino-6-(3-(1-naphthyl)allyl)-4,5,7,8-tetrahydro-6H-thiazolo[5,4-d]azepine] | 210 nM | 350 nM | 26 nM |
| Nc1nc2c(s1)CCN(CC=Cc1cccc(OCc3ccccc3)c1)CC2 [Example 4y, 2-Amino-6-(3-(3-benzyloxy-phenyl)allyl)-4,5,7,8-tetrahydro-6H-thiazolo[5,4-d]azepine] | 1500 nM | 23000 nM | 470 nM |
| N#Cc1ccc(C=CCN2CCc3nc(N)sc3CC2)cc1 [Example 14b, 2-Amino-6-(3-(4-cyano-phenyl)allyl)-4,5,7,8-tetrahydro-6H-thiazolo[5,4-d]azepine] | – | 7800 nM | 15000 nM |

The remaining lines, values ahead:

| Ki (dopamine D1-receptors) | Ki [1] | Ki [2] | SMILES |
| --- | --- | --- | --- |
| 180 nM | 1100 nM | 120 nM | Nc1nc2c(s1)CCN(CC=Cc1nccc3ccccc13)CC2 [Example 7a, 2-Amino-6-(3-(1-isoquinolinyl)allyl)-4,5,7,8-tetrahydro-6H-thiazolo[5,4-d]azepine] |
| 920 nM | 1770 nM | 558 nM | Nc1nc2c(s1)CCN(CC=Cc1ccccc1N1CCCCC1)CC2 [Example 11p, 2-Amino-6-(3-(2-(1-piperidino)phenyl)-2-propen-1-yl)-4,5,7,8-tetrahydro-6H-thiazolo[5,4-d]azepine] |
| 3000 nM | 3500 nM | 560 nM | Nc1nc2c(s1)CCN(CC=Cc1cc3ccccc3cn1)CC2 [Example 24a, 2-Amino-6-(3-(3-isoquinolinyl)allyl)-4,5,7,8-tetrahydro-6H-thiazolo[5,4-d]azepine] |
